ChEMBL document CHEMBL1140860, “Synthesis and evaluation of dihydroartemisinin and dihydroartemisitene acetal dimers showing anticancer and antiprotozoal activity” (Bioorg Med Chem, 2009)

Tests used:
SW-620 = assay: Growth inhibition of human SW620 cells after 48 hrs by sulforhodamine B assay; format: functional; conditions: SW-620, 48 h
HCT-116 = assay: Growth inhibition of human HCT116 cells after 48 hrs by sulforhodamine B assay; format: functional; conditions: HCT-116, 48 h
[1] = Selectivity index, ratio of TC50 for african green monkey (Cercopithecus aethiops) Vero cells to IC50 for chloroquine-sensitive Plasmodium falciparum D6; format: toxicity, cell-based
KM12 = assay: Growth inhibition of human KM12 cells after 48 hrs by sulforhodamine B assay; format: functional; conditions: KM12, 48 h
[2] = Cytotoxicity against african green monkey Vero cells after 48 hrs by neutral red assay; format: cell-based; conditions: chlorocebus sabaeus, read-out: TC50
OVCAR-8 = assay: Growth inhibition of human OVCAR8 cells after 48 hrs by sulforhodamine B assay; format: functional; conditions: OVCAR-8, 48 h
IGROV-1 = assay: Growth inhibition of human IGROV1 cells after 48 hrs by sulforhodamine B assay; format: functional; conditions: IGROV-1, 48 h
M14 = assay: Growth inhibition of human M14 cells after 48 hrs by sulforhodamine B assay; format: functional; conditions: M14, 48 h
NCI-H322M = assay: Growth inhibition of human NCI-H322M cells after 48 hrs by sulforhodamine B assay; format: functional
SF-295 = assay: Growth inhibition of human SF295 cells after 48 hrs by sulforhodamine B assay; format: functional; conditions: SF-295, 48 h
CCRF-CEM = assay: Growth inhibition of human CCRF-CEM cells after 48 hrs by sulforhodamine B assay; format: functional
[3] = Growth inhibition of human […] cells after 48 hrs by sulforhodamine B assay; format: functional
MDA-MB-231 = assay: Growth inhibition of human MDA-MB-231 cells after 48 hrs by sulforhodamine B assay; format: functional; conditions: MDA-MB-231, 48 h
SF-539 = assay: Growth inhibition of human SF539 cells after 48 hrs by sulforhodamine B assay; format: functional; conditions: SF-539, 48 h
SR = assay: Growth inhibition of human SR cells after 48 hrs by sulforhodamine B assay; format: functional
MDA-MB-435 = assay: Growth inhibition of human MDA-MB-435 cells after 48 hrs by sulforhodamine B assay; format: functional; conditions: MDA-MB-435, 48 h
HT-29 = assay: Growth inhibition of human HT-29 cells after 48 hrs by sulforhodamine B assay; format: functional; conditions: HT-29, 48 h
NCI-H226 = assay: Growth inhibition of human NCI-H226 cells after 48 hrs by sulforhodamine B assay; format: functional; conditions: NCI-H226, 48 h
PC-3 = assay: Growth inhibition of human PC3 cells after 48 hrs by sulforhodamine B assay; format: functional; conditions: PC-3, 48 h
T47D = assay: Growth inhibition of human T47D cells after 48 hrs by sulforhodamine B assay; format: functional
RXF 393 = assay: Growth inhibition of human RXF393 cells after 48 hrs by sulforhodamine B assay; format: functional; conditions: RXF 393, 48 h
SK-MEL-28 = assay: Growth inhibition of human SK-MEL-28 cells after 48 hrs by sulforhodamine B assay; format: functional; conditions: SK-MEL-28, 48 h
HCC 2998 = assay: Growth inhibition of human HCC2998 cells after 48 hrs by sulforhodamine B assay; format: functional; conditions: HCC 2998, 48 h
NCI-H23 = assay: Growth inhibition of human NCI-H23 cells after 48 hrs by sulforhodamine B assay; format: functional; conditions: NCI-H23, 48 h
MDA-N = assay: Growth inhibition of human MDA-N cells after 48 hrs by sulforhodamine B assay; format: functional
Plasmodium falciparum [4] = assay: Antimalarial activity after 72 hrs against chloroquine-resistant Plasmodium falciparum W2 infected erythrocytes by LDH assay; format: functional, organism-based; conditions: W2, 72 h
Plasmodium falciparum [5] = assay: Antimalarial activity after 72 hrs against chloroquine-sensitive Plasmodium falciparum D6 infected in erythrocytes by LDH assay; format: functional, organism-based; conditions: D6, 72 h
SK-MEL-2 = assay: Growth inhibition of human SK-MEL-2 cells after 48 hrs by sulforhodamine B assay; format: functional; conditions: SK-MEL-2, 48 h
SN12C = assay: Growth inhibition of human SN12C cells after 48 hrs by sulforhodamine B assay; format: functional
U-251 = assay: Growth inhibition of human U251 cells after 48 hrs by sulforhodamine B assay; format: functional; conditions: U-251, 48 h
K562 = assay: Growth inhibition of human K562 cells after 48 hrs by sulforhodamine B assay; format: functional; conditions: K562, 48 h
HOP-92 = assay: Growth inhibition of human HOP92 cells after 48 hrs by sulforhodamine B assay; format: functional; conditions: HOP-92, 48 h
HOP-62 = assay: Growth inhibition of human HOP62 cells after 48 hrs by sulforhodamine B assay; format: functional; conditions: HOP-62, 48 h
[6] = Selectivity index, ratio of TC50 for african green monkey (Cercopithecus aethiops) Vero cells to IC50 for chloroquine-resistant Plasmodium falciparum W2; format: toxicity, cell-based
DU-145 = assay: Growth inhibition of human DU145 cells after 48 hrs by sulforhodamine B assay; format: functional; conditions: DU-145, 48 h
A549 = assay: Growth inhibition of human A549 cells after 48 hrs by sulforhodamine B assay; format: functional; conditions: A549, 48 h
SNB-19 = assay: Growth inhibition of human SNB19 cells after 48 hrs by sulforhodamine B assay; format: functional; conditions: SNB-19, 48 h
[7] = Growth inhibition of human Hs 578T cells after 48 hrs by sulforhodamine B assay; format: functional
CAKI-1 = assay: Growth inhibition of human Caki1 cells after 48 hrs by sulforhodamine B assay; format: functional; conditions: CAKI-1, 48 h
SNB-75 = assay: Growth inhibition of human SNB75 cells after 48 hrs by sulforhodamine B assay; format: functional; conditions: SNB-75, 48 h
LOX IMVI = assay: Growth inhibition of human LOXIMVI cells after 48 hrs by sulforhodamine B assay; format: functional
HCT-15 = assay: Growth inhibition of human HCT15 cells after 48 hrs by sulforhodamine B assay; format: functional; conditions: HCT-15, 48 h
786-0 = assay: Growth inhibition of human 786-0 cells after 48 hrs by sulforhodamine B assay; format: functional; conditions: 786-0, 48 h
OVCAR-4 = assay: Growth inhibition of human OVCAR4 cells after 48 hrs by sulforhodamine B assay; format: functional; conditions: OVCAR-4, 48 h
ACHN = assay: Growth inhibition of human ACHN cells after 48 hrs by sulforhodamine B assay; format: functional
TK-10 = assay: Growth inhibition of human TK10 cells after 48 hrs by sulforhodamine B assay; format: functional; conditions: TK-10, 48 h
MOLT-4 = assay: Growth inhibition of human MOLT4 cells after 48 hrs by sulforhodamine B assay; format: functional; conditions: MOLT-4, 48 h
SK-OV-3 = assay: Growth inhibition of human SKOV3 cells after 48 hrs by sulforhodamine B assay; format: functional; conditions: SK-OV-3, 48 h
NCI-H460 = assay: Growth inhibition of human NCI-H460 cells after 48 hrs by sulforhodamine B assay; format: functional; conditions: NCI-H460, 48 h
UACC-62 = assay: Growth inhibition of human UACC62 cells after 48 hrs by sulforhodamine B assay; format: functional; conditions: UACC-62, 48 h
COLO 205 = assay: Growth inhibition of human COLO205 cells after 48 hrs by sulforhodamine B assay; format: functional; conditions: COLO 205, 48 h
MCF7 = assay: Growth inhibition of human MCF7 cells after 48 hrs by sulforhodamine B assay; format: functional; conditions: MCF7, 48 h
SF-268 = assay: Growth inhibition of human SF268 cells after 48 hrs by sulforhodamine B assay; format: functional; conditions: SF-268, 48 h
A498 = assay: Growth inhibition of human A498 cells after 48 hrs by sulforhodamine B assay; format: functional; conditions: A498, 48 h
SK-MEL-5 = assay: Growth inhibition of human SK-MEL-5 cells after 48 hrs by sulforhodamine B assay; format: functional; conditions: SK-MEL-5, 48 h
OVCAR-5 = assay: Growth inhibition of human OVCAR5 cells after 48 hrs by sulforhodamine B assay; format: functional; conditions: OVCAR-5, 48 h
NCI-H522 = assay: Growth inhibition of human NCI-H522 cells after 48 hrs by sulforhodamine B assay; format: functional; conditions: NCI-H522, 48 h
BT-549 = assay: Growth inhibition of human BT549 cells after 48 hrs by sulforhodamine B assay; format: functional; conditions: BT-549, 48 h
OVCAR-3 = assay: Growth inhibition of human OVCAR-3 cells after 48 hrs by sulforhodamine B assay; format: functional; conditions: OVCAR-3, 48 h
Malme-3M = assay: Growth inhibition of human MALME-3M cells after 48 hrs by sulforhodamine B assay; format: functional
UACC-257 = assay: Growth inhibition of human UACC257 cells after 48 hrs by sulforhodamine B assay; format: functional; conditions: UACC-257, 48 h
NCI/ADR-RES = assay: Growth inhibition of human NCI/ADR-RES cells after 48 hrs by sulforhodamine B assay; format: functional
EKVX = assay: Growth inhibition of human EKVX cells after 48 hrs by sulforhodamine B assay; format: functional

Compound: C[C@H]1[C@@H](OCCCO[C@H]2O[C@@H]3O[C@@]4(C)CC[C@H]5[C@H](C)CC[C@@H]([C@H]2C)[C@@]35OO4)O[C@@H]2O[C@@]3(C)CC[C@H]4[C@H](C)CC[C@@H]1[C@@]24OO3
- GI50 (SW-620): 0.522 µM
- GI50 (HCT-116): 0.545 µM
- selectivity ratio [1]: > 21
- GI50 (KM12): 0.517 µM
- CC50 at 48 h [2]: 296 µM
- GI50 (OVCAR-8): > 100 µM
- GI50 (IGROV-1): 7.68 µM
- GI50 (M14): > 100 µM
- GI50 (NCI-H322M): > 100 µM
- GI50 (SF-295): > 100 µM
- GI50 (CCRF-CEM): 1.31 µM
- GI50 [3]: 4.45 µM
- GI50 (MDA-MB-231): 7.34 µM
- GI50 (SF-539): > 100 µM
- GI50 (SR): 1.98 µM
- GI50 (MDA-MB-435): 0.694 µM
- GI50 (HT-29): 0.522 µM
- GI50 (NCI-H226): > 100 µM
- GI50 (PC-3): 3.08 µM
- GI50 (T47D): 0.497 µM
- GI50 (RXF 393): 8 µM
- GI50 (SK-MEL-28): > 100 µM
- GI50 (HCC 2998): 9.65 µM
- GI50 (NCI-H23): > 100 µM
- GI50 (MDA-N): 1.58 µM
- IC50 (Plasmodium falciparum [4]): 8.5 µM
- IC50 (Plasmodium falciparum [5]): 14 µM
- GI50 (SK-MEL-2): > 100 µM
- GI50 (SN12C): 4.03 µM
- GI50 (U-251): > 100 µM
- GI50 (K562): > 100 µM
- GI50 (HOP-92): > 100 µM
- GI50 (HOP-62): > 100 µM
- selectivity ratio [6]: 35
- GI50 (DU-145): 100 µM
- GI50 (A549): 28.7 µM
- GI50 (SNB-19): > 100 µM
- GI50 [7]: 0.62 µM
- GI50 (CAKI-1): 6.95 µM
- GI50 (SNB-75): > 100 µM
- GI50 (LOX IMVI): > 100 µM
- GI50 (HCT-15): 0.403 µM
- GI50 (786-0): 1.41 µM
- GI50 (OVCAR-4): > 100 µM
- GI50 (ACHN): 1.47 µM
- GI50 (TK-10): 2.41 µM
- GI50 (MOLT-4): 5.95 µM
- GI50 (SK-OV-3): > 100 µM
- GI50 (NCI-H460): 31.2 µM
- GI50 (UACC-62): 17.9 µM
- GI50 (COLO 205): 0.45 µM
- GI50 (MCF7): 0.652 µM
- GI50 (SF-268): > 100 µM
- GI50 (A498): 14.7 µM
- GI50 (SK-MEL-5): 30.5 µM
- GI50 (OVCAR-5): > 100 µM
- GI50 (NCI-H522): 7.13 µM
- GI50 (BT-549): 2.79 µM
- GI50 (OVCAR-3): > 100 µM
- GI50 (Malme-3M): > 100 µM
- GI50 (UACC-257): > 100 µM
- GI50 (NCI/ADR-RES): 3.64 µM
- GI50 (EKVX): 5.49 µM
